According to patent EP2236138A1 (priority 2009, dated 2010):
Blank lines part the entries; values can stand above or below the compound they belong to.

Experiments:
5HT2B = 5HT2B (Homo sapiens, UniProt P41595); assay: pKi values of test compounds, 5HT2B (Table 1); assay type: binding
5HT1D = 5HT1D (Homo sapiens, UniProt P28221); assay: biochemical; assay type: binding
5HT1B = 5HT1B (Homo sapiens, UniProt P28222); assay: biochemical; assay type: binding
Alpha2A = molecular target: T1, Alpha2A (Homo sapiens, UniProt P08913); assay: pKi values of test compounds, Alpha2A (Table 1); assay type: binding
T1 sequence (P08913 1-465): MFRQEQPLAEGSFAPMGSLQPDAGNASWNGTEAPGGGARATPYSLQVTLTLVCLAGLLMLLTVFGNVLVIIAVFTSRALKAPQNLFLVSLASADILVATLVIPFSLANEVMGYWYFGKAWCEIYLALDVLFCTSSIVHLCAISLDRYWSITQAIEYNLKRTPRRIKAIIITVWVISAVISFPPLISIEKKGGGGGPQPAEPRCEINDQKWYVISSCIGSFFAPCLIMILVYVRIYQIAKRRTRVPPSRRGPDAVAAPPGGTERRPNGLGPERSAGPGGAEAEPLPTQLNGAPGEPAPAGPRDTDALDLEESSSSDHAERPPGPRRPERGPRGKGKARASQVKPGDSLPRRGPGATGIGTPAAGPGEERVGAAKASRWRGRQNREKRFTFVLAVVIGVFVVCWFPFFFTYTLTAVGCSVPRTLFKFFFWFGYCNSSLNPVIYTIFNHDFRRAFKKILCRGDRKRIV

D3 = D3 (Homo sapiens, UniProt P35462); assay: biochemical; assay type: binding
other dopamine receptors = assay: pKi value towards other dopamine receptors; assay type: binding
other 5HT receptors = assay: pKi value towards other 5HT receptors; assay type: binding
[1] = tested on: patients with major depression; assay: Semi-naturalistic open label study of combo pipamperone-citalopram in major depression; assay type: in vivo
Description: Design: Semi-naturalistic i.e. inclusion of every 'natural' patient in an outpatient practice but without concomitant use of mood enhancing drugs, open label
Phase: Phase Ila - preliminary Proof of Concept
Location: Belgium - Research Centre ANIMA, Alken
End Points : Assessment scale scores, Hamilton Depression Rating Scale 17 items, Reduction, Response, Remission
Medication: Exclusion of mood stabilisers, antipsychotics (typical and atypical) and other antidepressants […]
Adverse events are assessed on: body as a whole, central and peripheral nervous system, gastrointestinal, musculoskeletal, psychiatric, respiratory, skin and appendages, vascular and urinary, taking into account discontinued treatment due to adverse events. Laboratory parameters, ECG, bodyweight and vital signs are not measured since this is a naturalistic study.

5HT2C = molecular target: T2, 5HT2C (Homo sapiens, UniProt P28335); assay type: binding
T2 sequence (P28335 33-458): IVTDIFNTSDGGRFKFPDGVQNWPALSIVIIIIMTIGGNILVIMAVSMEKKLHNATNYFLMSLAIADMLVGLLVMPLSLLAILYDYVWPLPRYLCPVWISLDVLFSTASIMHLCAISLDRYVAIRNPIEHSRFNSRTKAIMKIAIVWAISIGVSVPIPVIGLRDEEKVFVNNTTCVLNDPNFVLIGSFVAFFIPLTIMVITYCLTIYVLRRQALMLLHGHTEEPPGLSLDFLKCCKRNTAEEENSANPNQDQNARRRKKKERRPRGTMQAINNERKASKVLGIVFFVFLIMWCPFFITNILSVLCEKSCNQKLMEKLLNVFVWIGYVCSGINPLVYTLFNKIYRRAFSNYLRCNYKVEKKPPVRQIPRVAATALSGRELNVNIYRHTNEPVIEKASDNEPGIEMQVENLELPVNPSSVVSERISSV

Beta1 = Beta1 (Homo sapiens, UniProt P08588); assay: pKi values of test compounds, Beta1 (Table 1); assay type: binding
5HT6rat = 5HT6rat (Rattus norvegicus, UniProt P31388); assay: pKi values of test compounds, 5HT6 rat (Table 1); assay type: binding
Beta2 = Beta2 (Homo sapiens, UniProt P07550); assay: pKi values of test compounds, Beta2 (Table 1); assay type: binding
D2 = D2 (Homo sapiens, UniProt P14416); assay type: binding
5HT1A = molecular target: T3, 5HT1A (Homo sapiens, UniProt P08908); assay type: binding
T3 sequence (P08908 1-422): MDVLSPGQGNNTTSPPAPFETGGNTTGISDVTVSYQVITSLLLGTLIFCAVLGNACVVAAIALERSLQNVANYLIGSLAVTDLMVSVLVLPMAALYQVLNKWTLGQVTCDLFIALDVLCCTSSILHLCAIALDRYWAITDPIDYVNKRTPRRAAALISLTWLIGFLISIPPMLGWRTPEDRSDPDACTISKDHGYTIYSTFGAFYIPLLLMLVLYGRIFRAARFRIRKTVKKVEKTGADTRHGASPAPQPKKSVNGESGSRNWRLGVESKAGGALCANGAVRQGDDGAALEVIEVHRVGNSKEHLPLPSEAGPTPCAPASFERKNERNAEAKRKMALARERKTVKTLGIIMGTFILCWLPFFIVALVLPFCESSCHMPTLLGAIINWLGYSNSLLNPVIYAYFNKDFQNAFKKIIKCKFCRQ

Alpha1A = molecular target: T4, Alpha1A (Homo sapiens, UniProt P35348); assay type: binding
T4 sequence (P35348 1-466): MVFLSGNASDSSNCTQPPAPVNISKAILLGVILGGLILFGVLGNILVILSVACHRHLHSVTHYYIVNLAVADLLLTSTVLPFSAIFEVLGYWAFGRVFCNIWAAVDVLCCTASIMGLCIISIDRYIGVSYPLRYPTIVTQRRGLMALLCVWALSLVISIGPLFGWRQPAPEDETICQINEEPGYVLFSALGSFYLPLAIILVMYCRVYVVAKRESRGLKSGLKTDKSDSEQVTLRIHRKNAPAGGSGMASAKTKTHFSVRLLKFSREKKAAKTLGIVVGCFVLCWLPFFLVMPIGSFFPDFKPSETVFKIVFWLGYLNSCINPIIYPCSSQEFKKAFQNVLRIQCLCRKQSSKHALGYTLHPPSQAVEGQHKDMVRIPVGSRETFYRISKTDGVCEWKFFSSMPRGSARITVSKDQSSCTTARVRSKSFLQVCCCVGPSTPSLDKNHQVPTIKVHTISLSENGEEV

D1 = D1 (Homo sapiens, UniProt P21728); assay type: binding
Sequence of D1 (P21728 whole entry): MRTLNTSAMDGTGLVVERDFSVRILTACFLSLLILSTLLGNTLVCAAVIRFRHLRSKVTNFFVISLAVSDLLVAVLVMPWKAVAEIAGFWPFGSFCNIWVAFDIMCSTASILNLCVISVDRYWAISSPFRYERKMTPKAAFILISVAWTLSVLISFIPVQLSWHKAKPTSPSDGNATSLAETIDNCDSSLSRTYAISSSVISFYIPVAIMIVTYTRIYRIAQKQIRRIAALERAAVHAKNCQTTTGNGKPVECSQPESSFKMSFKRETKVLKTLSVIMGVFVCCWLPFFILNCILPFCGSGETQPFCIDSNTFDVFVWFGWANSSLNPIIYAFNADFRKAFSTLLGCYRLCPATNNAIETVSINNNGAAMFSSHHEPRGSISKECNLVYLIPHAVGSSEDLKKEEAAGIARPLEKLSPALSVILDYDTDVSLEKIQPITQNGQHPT

Sequence of D3 (P35462 whole entry): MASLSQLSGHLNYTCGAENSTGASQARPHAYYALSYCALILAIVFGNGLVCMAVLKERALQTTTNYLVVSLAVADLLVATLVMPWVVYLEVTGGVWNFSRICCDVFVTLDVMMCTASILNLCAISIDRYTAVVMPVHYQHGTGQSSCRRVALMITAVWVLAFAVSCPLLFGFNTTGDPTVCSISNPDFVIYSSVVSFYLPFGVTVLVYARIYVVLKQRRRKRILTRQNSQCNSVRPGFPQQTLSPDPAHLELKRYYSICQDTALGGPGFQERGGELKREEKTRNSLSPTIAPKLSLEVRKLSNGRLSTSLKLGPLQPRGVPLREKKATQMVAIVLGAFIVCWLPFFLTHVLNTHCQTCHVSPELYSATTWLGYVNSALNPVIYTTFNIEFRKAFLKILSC
Sequence of 5HT1B (P28222 whole entry): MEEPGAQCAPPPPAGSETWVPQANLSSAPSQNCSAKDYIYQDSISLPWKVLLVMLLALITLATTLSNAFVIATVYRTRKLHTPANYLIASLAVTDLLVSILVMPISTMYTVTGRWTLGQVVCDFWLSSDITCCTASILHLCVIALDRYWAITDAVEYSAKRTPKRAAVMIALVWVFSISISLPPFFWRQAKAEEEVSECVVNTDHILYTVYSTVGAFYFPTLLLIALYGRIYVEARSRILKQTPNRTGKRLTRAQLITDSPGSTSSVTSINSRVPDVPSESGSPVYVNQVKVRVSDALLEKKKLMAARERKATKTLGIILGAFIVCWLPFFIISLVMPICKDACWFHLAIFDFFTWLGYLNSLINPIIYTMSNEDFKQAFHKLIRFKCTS
Sequence of 5HT1D (P28221 whole entry): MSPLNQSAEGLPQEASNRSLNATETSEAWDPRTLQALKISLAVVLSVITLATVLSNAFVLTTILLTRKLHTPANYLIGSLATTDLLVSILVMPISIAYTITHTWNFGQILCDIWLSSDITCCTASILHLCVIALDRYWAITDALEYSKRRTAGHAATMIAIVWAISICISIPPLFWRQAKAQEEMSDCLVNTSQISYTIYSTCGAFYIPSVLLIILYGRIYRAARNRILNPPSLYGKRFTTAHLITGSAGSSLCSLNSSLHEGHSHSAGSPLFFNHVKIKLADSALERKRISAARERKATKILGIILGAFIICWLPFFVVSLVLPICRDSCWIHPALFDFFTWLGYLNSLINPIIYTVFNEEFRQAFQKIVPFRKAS
Sequence of 5HT2B (P41595 whole entry): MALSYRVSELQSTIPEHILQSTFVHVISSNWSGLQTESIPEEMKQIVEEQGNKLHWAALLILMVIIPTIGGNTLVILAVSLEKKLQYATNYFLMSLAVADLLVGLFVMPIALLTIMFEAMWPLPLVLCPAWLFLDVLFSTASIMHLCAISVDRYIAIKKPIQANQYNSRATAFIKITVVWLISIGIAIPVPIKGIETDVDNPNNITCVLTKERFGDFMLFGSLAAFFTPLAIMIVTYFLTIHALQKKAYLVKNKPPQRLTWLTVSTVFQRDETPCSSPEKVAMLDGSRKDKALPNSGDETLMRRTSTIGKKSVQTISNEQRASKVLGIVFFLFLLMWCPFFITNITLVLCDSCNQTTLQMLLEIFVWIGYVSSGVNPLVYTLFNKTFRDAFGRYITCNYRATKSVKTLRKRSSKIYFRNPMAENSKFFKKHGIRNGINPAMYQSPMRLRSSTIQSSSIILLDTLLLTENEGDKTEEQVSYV
Sequence of D2 (P14416 whole entry): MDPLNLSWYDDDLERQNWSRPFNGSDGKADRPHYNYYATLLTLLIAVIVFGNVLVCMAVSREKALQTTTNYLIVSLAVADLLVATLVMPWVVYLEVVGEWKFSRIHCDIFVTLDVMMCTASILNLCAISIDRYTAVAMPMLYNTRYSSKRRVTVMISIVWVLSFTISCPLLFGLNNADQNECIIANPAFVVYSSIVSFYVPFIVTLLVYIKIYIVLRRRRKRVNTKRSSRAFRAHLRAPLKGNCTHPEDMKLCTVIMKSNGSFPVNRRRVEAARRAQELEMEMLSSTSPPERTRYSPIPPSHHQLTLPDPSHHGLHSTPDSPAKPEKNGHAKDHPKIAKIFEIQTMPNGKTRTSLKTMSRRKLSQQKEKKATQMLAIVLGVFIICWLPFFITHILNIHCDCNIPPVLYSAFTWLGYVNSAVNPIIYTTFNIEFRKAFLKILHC
Sequence of Beta2 (P07550 whole entry): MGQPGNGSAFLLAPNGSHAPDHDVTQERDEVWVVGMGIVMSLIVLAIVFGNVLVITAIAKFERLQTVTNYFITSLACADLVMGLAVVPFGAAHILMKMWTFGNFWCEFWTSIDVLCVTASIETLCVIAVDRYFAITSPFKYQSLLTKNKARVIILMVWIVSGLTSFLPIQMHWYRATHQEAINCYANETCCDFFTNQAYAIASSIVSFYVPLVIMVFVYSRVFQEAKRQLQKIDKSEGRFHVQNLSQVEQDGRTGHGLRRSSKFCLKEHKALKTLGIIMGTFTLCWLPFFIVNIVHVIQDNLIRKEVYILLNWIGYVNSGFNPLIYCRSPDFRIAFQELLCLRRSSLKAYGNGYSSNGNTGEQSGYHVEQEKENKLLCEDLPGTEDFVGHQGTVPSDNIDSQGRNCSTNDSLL
Sequence of Beta1 (P08588 whole entry): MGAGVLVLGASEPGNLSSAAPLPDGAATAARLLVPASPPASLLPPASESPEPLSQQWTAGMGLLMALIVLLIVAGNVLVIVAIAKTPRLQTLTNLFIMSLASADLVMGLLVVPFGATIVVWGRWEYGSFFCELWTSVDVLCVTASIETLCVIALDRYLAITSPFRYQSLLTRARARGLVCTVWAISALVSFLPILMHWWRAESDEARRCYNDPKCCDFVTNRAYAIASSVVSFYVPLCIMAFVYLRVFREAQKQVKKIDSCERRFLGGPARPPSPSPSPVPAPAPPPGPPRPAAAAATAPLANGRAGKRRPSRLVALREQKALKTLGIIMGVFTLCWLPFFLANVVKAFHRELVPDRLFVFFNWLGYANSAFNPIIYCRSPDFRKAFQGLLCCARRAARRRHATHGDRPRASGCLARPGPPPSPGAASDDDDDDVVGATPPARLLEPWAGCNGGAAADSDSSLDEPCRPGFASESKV
Sequence of 5HT6rat (P31388 whole entry): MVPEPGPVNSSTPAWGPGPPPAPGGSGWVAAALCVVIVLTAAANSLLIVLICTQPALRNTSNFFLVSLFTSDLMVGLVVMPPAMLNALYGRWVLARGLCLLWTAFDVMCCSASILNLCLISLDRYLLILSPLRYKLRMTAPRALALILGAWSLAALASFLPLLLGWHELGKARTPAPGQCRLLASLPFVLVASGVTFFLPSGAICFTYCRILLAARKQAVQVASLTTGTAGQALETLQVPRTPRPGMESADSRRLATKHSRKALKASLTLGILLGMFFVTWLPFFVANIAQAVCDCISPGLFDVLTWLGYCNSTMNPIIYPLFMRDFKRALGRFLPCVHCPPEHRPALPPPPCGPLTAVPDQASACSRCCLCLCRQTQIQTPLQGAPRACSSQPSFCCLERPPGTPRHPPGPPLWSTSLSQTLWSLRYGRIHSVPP

SMILES: OC1(c2ccc(Cl)cc2)CCN(Cc2c[nH]c3ccccc23)CC1 [L741626]
Ki (5HT2B): 100 to 1000 nM
Ki (5HT1D): > 1000 nM
Ki (5HT1B; read-out: pKi 5HT1B (converted)): > 1000 nM
Ki (Alpha2A): > 1000 nM
Ki (D3): 10 to 100 nM

pKi value towards other dopamine receptors (other dopamine receptors): less than 8
pKi value towards other 5HT receptors (other 5HT receptors): less than 8
SMILES: NC(=O)C1(N2CCCCC2)CCN(CCCC(=O)c2ccc(F)cc2)CC1 [Pipamperon, 1'-[3-(p-Fluorobenzoyl)propyl]-[1,4'-bipiperidine]-4'-carboxamide]
Sedative effects of pipamperone ([1]; major depression study, pipamperone 2-4 mg/day): lacking
boosting effect of pipamperone on a SSRI, in this case citalopram ([1]; major depression, pipamperone 2-4 mg/day + citalopram 20-40 mg/day PO, 8 weeks): apparent

pKi 5HT2C (5HT2C): <6
pKi Beta1 (Beta1): <6
pKi 5HT6rat (5HT6rat): 6-7
pKi Beta2 (Beta2): <6
pKi D3 (D3): 7-8
pKi D2 (D2): 7-8
SMILES: O=C(C[C@H]1CCN(CCOc2cccc3c2OCCO3)C1)c1ccc(F)cc1 [S16924]

SMILES: N#Cc1ccc2c(c1)[C@H]1CN(CCCCNC(=O)c3ccc(-c4ccccc4)cc3)C[C@@H]1CO2 [S33084]
pKi 5HT1A (5HT1A): <6
pKi 5HT2C (5HT2C): 7-8
pKi Alpha1A (Alpha1A): 6-7
pKi 5HT2B (5HT2B): 6-7
pKi 5HT1D (5HT1D): 6-7
pKi D1 (D1): 6-7
pKi 5HT1B (5HT1B): 6-7
pKi Alpha2A (Alpha2A): <6
pKi D2 (D2): 7-8
